Legend:
[1] = test system: CEM-SS infected with HIVIIIB; assay: Cell viability of HIV-infected CEM-SS cells by trypan blue dye exclusion; type: cell-based, HIV-1; settings: 1.0 mA; for Cell Viability, HIV-Infected Cells: 7 days post exposure
Procedure: (§1) In one test performed according to the invention, infection studies were carried out in a Level III facility in vitro using HIV-infected and noninfected cells. To establish infection, a viral dose of MOI 0.5 was added to a culture flask. The supernatants of control and test flasks were tested for the presence of the p24 antigen. Cells were then incubated in the presence and absence of silver ions produced by passing current through a sterile silver electrode present in the culture flask. Current was applied for 0, 1, 5, 10 and 30 minutes after incubation of virus with the cells. Cells were then be maintained in culture for 7 days and the concentration of p24 antigen in the supernatant was determined.
(§2) The cells used for such studies were CEM-SS cultured human lymphoblasts to allow detection and monitoring of HIV-induced synceytium. Cells were grown in enriched RPMI medium (20% fetal calf serum; FCS) and maintained in a 5% CO2 enriched tissue culture incubator at 37 degrees Celsius. Infection was conducted at a Multiplicity Dose of 0.5 using HIVIIIB prepared from previously infected CEM-SS stock suspensions.
(§3) In this test performed according to the invention, a silver catheter was introduced by drill into the tissue culture flask, sealed and the flask was then gas-sterilized. Silver ions were generated by connecting the silver electrode to a purpose-built device designed by one of the investigators (RE) powered by a 9 volt battery and designed to generate a steady current of 1.0 milliamp.
(§4) Cell viability was determined using trypan blue dye exclusion. The HIV p24 antigen concentrations in the culture supernatants were determined using an antigen capture assay.
(§5) Each experiment was performed in triplicate and repeated three times. Differences between cells exposed and unexposed to silver ions were compared by analysis of variance.

[2] = test system: HIVIIIB in CEM-SS cells (p24 antigen); assay: HIV p24 antigen in culture supernatant by antigen capture assay; type: cell-based, HIV-1
Procedure: as §1, §2, §3, §4, §5

silver ions
Increase in cell viability of infected cells compared to similar cells not subjected to the silver ion treatment ([1]; 10 minutes of silver ion exposure): greater than 25% | Cell Viability, HIV-Infected Cells ([1]; five minute treatment): 45% alive | Cell Viability, HIV-Infected Cells ([1]; one minute treatment): 37% alive | Cell Viability, HIV-Infected Cells ([1]; one minute treatment, listed as Silver Ions): 37% | Cell Viability, HIV-Infected Cells ([1]; ten minute treatment): 54% alive | Cell Viability, HIV-Infected Cells ([1]; ten minute treatment, listed as Silver Ions): 54% | Cell Viability, HIV-Infected Cells ([1]; thirty minute treatment): 28% alive | Change in p24 antigen (in words) ([2]; after 10 minutes of 1.0 mA current flow): decline | Decline in the concentration of p24 antigen in HIV-exposed cultures ([2]; over thirty minutes, 1.0 mA, p<0.05): 56% | Change in p24 concentration (in words) ([2]; silver ion incubation for five minutes): initial increase

Source: patent US20080195033A1, “Method of Delivery of Therapeutic Metal Ions, Alloys and Salts” (INTERNATIONAL BIO-THERAPEUTIC RESEARCH INC., priority 2004, published 2008)
